One data set relates to Mus musculus. The data set is described as follows: Ex vivo binding affinity at CB1 receptor in mouse at 10 mg/kg, iv. The data set is classed as functional.
Data set [1] deals with T1, Cannabinoid receptor 1 (Rattus norvegicus, UniProt P20272). Kind of data set: Inverse agonist activity at rat CB1 receptor.
Data set [2] addresses T2, Cannabinoid receptor 1 (Homo sapiens, UniProt P21554). Kind of data set: Inverse agonist activity at human CB1 receptor.
The target of data set [3] is T2, Cannabinoid receptor 1. Kind of data set: Binding affinity at CB1 receptor (unknown origin).
Data set [4] concerns Nucleic Acid. The data set is described as follows: Ratio of drug uptake in plasma to brain of po dosed mouse. The data set is classed as ADME, organism-based. As to conditions: in vivo.
For data set [5], the system named is Nucleic Acid. Kind of data set: Ratio of drug uptake in plasma to brain of C57BL/6J mouse. The data set is classed as ADME. As to conditions: in vivo.
The subject of data set [6] is Brain. Kind of data set: Drug uptake in rat brain. The data set is classed as ADME, tissue-based. The conditions noted are these: in vivo, read-out: Drug uptake.
Data set [7] concerns the target T2, Cannabinoid receptor 1. The data set is described as follows: Antagonist activity at human CB1 receptor.
Data set [8] deals with Brain. Kind of data set: Drug uptake in mouse brain. The data set is classed as ADME, tissue-based. The conditions noted are these: in vivo, read-out: Drug uptake.
The target in data set [9] is T1, Cannabinoid receptor 1. Kind of data set: Antagonist activity at rat CB1 receptor.
Data set [10] has as its target T2, Cannabinoid receptor 1. Kind of data set: Binding affinity to human CB1 receptor.
The nature of data set [11]: Lipophilicity, log D of the compound. Format: physicochemical. The conditions noted are these: octanol/water.
A short description of data set [12]: Cmax in rat at 10 mg/kg. The data set is classed as ADME, organism-based. Further details: dose 10 mg/kg. As to conditions: in vivo.
Data set [13] can be described thus: Protein binding in rat plasma at 10 mg/kg. Details: dose 10 mg/kg. The conditions noted are these: read-out: PPB. Format: ADME, organism-based.
Data set [14] concerns Rattus norvegicus. The data set is described as follows: Receptor occupancy at CB1 receptor in rat frontal cortex at 10 mg/kg, po. Format: functional.
Data set [15] has as its system Rattus norvegicus. The data set is described as follows: Receptor occupancy at CB1 receptor in rat frontal cortex at 3 to 10 mg/kg, po. The conditions noted are these: dose mg/kg 3-10. Format: functional.
For data set [16], the species on record is Rattus norvegicus. The data set is described as follows: Receptor occupancy at CB1 receptor in diet-induced obese rat assessed as weight loss. Format: functional.

The structures appear in SMILES notation.

T2 sequence (P21554 whole entry): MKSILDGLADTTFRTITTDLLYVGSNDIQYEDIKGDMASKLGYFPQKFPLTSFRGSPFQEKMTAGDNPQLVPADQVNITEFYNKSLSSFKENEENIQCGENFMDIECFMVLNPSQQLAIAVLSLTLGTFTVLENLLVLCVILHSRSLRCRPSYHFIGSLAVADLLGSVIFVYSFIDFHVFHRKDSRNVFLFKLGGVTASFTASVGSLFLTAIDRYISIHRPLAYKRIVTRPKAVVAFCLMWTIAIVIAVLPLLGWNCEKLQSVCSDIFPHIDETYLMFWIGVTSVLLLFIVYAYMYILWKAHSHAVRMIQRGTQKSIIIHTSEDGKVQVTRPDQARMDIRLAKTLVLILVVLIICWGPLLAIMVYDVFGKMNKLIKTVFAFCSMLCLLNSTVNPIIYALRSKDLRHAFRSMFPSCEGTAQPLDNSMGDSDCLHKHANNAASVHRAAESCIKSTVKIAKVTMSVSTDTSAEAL
T1 sequence (P20272 whole entry): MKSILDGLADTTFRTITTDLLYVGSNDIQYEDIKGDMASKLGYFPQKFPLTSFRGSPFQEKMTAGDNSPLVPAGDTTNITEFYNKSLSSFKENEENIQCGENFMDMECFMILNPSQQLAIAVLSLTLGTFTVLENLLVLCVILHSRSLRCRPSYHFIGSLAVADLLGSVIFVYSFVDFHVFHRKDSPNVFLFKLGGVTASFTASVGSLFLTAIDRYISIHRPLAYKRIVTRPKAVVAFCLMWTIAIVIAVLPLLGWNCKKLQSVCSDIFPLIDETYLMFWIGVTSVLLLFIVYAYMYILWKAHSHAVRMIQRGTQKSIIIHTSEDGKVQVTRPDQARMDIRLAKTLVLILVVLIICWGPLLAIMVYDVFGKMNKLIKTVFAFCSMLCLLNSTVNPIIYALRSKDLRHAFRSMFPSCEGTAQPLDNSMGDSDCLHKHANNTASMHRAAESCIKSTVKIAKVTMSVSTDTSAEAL

Regarding `CS(=O)(=O)NCCCn1c(C(=O)N2CCC(C(N)=O)(N3CCC(F)(F)CC3)CC2)cc(-c2ccc(Cl)cc2Cl)c1-c1ccc(Cl)cc1`, in the data set on Mus musculus, the Activity was 28%.
As to `CCCCCCc1nc(-c2ccc(Cl)cc2)n(-c2ccc(Cl)cc2Cl)n1`, the IC50 was 690 nM on Cannabinoid receptor 1 [1] and 631 nM on Cannabinoid receptor 1 [2].
For the compound `CCc1c(C(=O)NN2CCCCC2)nn(-c2ccc(Cl)cc2Cl)c1-c1ccc(C#Cc2ccc(C(F)(F)F)cc2)s1`, the Ki on Cannabinoid receptor 1 [3] was 3 nM. Moreover, the Ratio in the data set with Nucleic Acid [4] is recorded as 1.2; in the data set with Nucleic Acid [5] it was 33. The same compound registered an IC50 on Cannabinoid receptor 1 [2] of 8.5 nM.
On to `Cc1c(C(=O)NN2CCS(=O)(=O)CC2)nn(-c2ccc(Cl)cc2Cl)c1-c1ccc(C#CCCC#N)cc1`, for which, in the data set on Nucleic Acid [4], the Ratio came out at 33. Moreover, the concentration in the data set with Brain [6] and in the data set on Brain [8] was 50 nM in each case. This compound showed a Ki on Cannabinoid receptor 1 [7] of 1 nM.
Compound `Cc1c(/C=C/C(=O)NCc2cccc(Cl)c2)nn(-c2ccc(Cl)cc2Cl)c1-c1ccc(Cl)cc1` returned an IC50 on Cannabinoid receptor 1 [9] of 159 nM.
For the compound `CC1(C)C(=O)N(c2ccc(F)c(C(F)(F)F)c2)C(=O)C1Cc1ccc(F)cc1NC(=O)Nc1ccc(S(N)(=O)=O)cc1` (stereo not given), at Cannabinoid receptor 1 [10], the IC50 turned out to be 10 nM and affinity was put at a Ki of 9 nM. This compound also gave a logD in [11] of 3.66. The same compound yielded a Cmax in data set [12] of 430 nM. For the same compound, the fraction unbound in data set [13] was < 0.01.
`CN/C(=N\S(=O)(=O)c1ccc(Cl)cc1)N1C[C@H](c2ccccc2)C(c2ccc(Cl)cc2)=N1` [IBIPINABANT] displayed an Occ with Rattus norvegicus [14] of 11%.
`Cc1c(C(=O)NN2CCCCC2)nn(-c2ccc(Cl)cc2Cl)c1-c1ccc(Cl)cc1` [RIMONABANT]: the Occ with Rattus norvegicus [15] is given as >65%.
With `C[C@H](NC(=O)C(C)(C)Oc1ccc(C(F)(F)F)cn1)[C@@H](Cc1ccc(Cl)cc1)c1cccc(C#N)c1` [TARANABANT], in the data set listed under Rattus norvegicus [16], the Occ was found to be 30%.

The term IC50 denotes the point on the concentration scale where inhibition reaches its midpoint. Low readings indicate higher potency, high ones lower potency. As a reminder, the Ki is a dissociation constant, usually derived from enzyme kinetics or from competition with a known ligand. One may read the logD as the decadic logarithm of the distribution of all forms, ionised or not, between an organic phase and buffer at a given pH. A lower logD goes with a more hydrophilic compound. The Cmax is the peak of the concentration-time curve.

(Values after ChEMBL document CHEMBL3352803, “Peripherally restricted CB1 receptor blockers” (Bioorg Med Chem Lett, 2013).)
